ChEMBL document CHEMBL1268894, “Synthesis and biological evaluation of novel hygromycin A antibacterial agents” (Bioorg Med Chem Lett, 2010)
In brackets after ≈: the same amount, converted by molar mass.

Assays:
Staphylococcus aureus [1] = assay: Antimicrobial activity against Staphylococcus aureus 1146; format: functional
Streptococcus pyogenes [2] = assay: Antimicrobial activity against Streptococcus pyogenes 2035; format: functional
[3] = Permeability across basolateral to apical side in human Caco-2 cells; format: ADME, cell-based; conditions: read-out: permeability
Streptococcus pneumoniae [4] = assay: Antimicrobial activity against Streptococcus pneumoniae 1095; format: functional
Staphylococcus aureus [5] = assay: Antimicrobial activity against Staphylococcus aureus 1095; format: functional
Streptococcus pneumoniae [6] = assay: Antimicrobial activity against Streptococcus pneumoniae 1046; format: functional
[7] = Permeability across apical to basolateral side in human Caco-2 cells; format: ADME, cell-based; conditions: read-out: permeability
Streptococcus pyogenes [8] = assay: Antimicrobial activity against Streptococcus pyogenes 1079; format: functional
[9] = Oral bioavailability in rat; format: ADME, organism-based; conditions: in vivo

Compound	MIC (Staphylococcus aureus [1])	MIC (Streptococcus pyogenes [2])	Papp B→A [3]	MIC (Streptococcus pneumoniae [4])	MIC (Staphylococcus aureus [5])	MIC (Streptococcus pneumoniae [6])	Papp A→B [7]	MIC (Streptococcus pyogenes [8])	bioavailability [9]
C/C(=C\c1cc(F)c(OCCCF)cc1F)C(=O)N[C@@H]1[C@H](O)[C@@H](O)[C@H]2OCO[C@H]2[C@@H]1OCc1ccccc1C#N	1 µg/mL (≈ 1.78 µM)	0.25 µg/mL (≈ 0.444 µM)	22 ×10⁻⁶ cm/s	< 0.0625 µg/mL	1 µg/mL (≈ 1.78 µM)	< 0.0625 µg/mL	2.5 ×10⁻⁶ cm/s	< 0.0625 µg/mL	–
CCO[C@@H]1[C@@H](O)[C@H]2OCO[C@H]2[C@H](O)[C@@H]1NC(=O)/C(C)=C/c1cc(F)c(OCCCF)cc1F	8 µg/mL (≈ 16.8 µM)	1 µg/mL (≈ 2.1 µM)	–	8 µg/mL (≈ 16.8 µM)	8 µg/mL (≈ 16.8 µM)	2 µg/mL (≈ 4.21 µM)	–	2 µg/mL (≈ 4.21 µM)	–
CCCO[C@@H]1[C@H](NC(=O)/C(C)=C/c2cc(F)c(OCCCF)cc2F)[C@H](O)[C@@H](O)[C@H]2OCO[C@H]21	8 µg/mL (≈ 16.3 µM)	4 µg/mL (≈ 8.17 µM)	–	2 µg/mL (≈ 4.09 µM)	4 µg/mL (≈ 8.17 µM)	1 µg/mL (≈ 2.04 µM)	–	1 µg/mL (≈ 2.04 µM)	–
CCCO[C@@H]1[C@@H](O)[C@H]2OCO[C@H]2[C@H](O)[C@@H]1NC(=O)/C(C)=C/c1cc(F)c(OCCCF)cc1F	> 64 µg/mL	64 µg/mL (≈ 131 µM)	–	64 µg/mL (≈ 131 µM)	> 64 µg/mL	64 µg/mL (≈ 131 µM)	–	32 µg/mL (≈ 65.4 µM)	–
C/C(=C\c1cc(F)c(OCCCF)cc1F)C(=O)N[C@@H]1[C@H](O)[C@@H](O)[C@H]2OCO[C@H]2[C@@H]1OCCCF	1 µg/mL (≈ 1.97 µM)	0.5 µg/mL (≈ 0.985 µM)	–	0.25 µg/mL (≈ 0.493 µM)	2 µg/mL (≈ 3.94 µM)	0.25 µg/mL (≈ 0.493 µM)	–	0.125 µg/mL (≈ 0.246 µM)	–
C/C(=C\c1cc(F)c(OCCCF)cc1F)C(=O)N[C@H]1[C@@H](O)[C@@H]2OCO[C@@H]2[C@H](O)[C@H]1OCCCF	8 µg/mL (≈ 15.8 µM)	8 µg/mL (≈ 15.8 µM)	–	8 µg/mL (≈ 15.8 µM)	16 µg/mL (≈ 31.5 µM)	8 µg/mL (≈ 15.8 µM)	–	2 µg/mL (≈ 3.94 µM)	–
C/C(=C\c1cc(F)c(OCCCF)cc1F)C(=O)N[C@@H]1[C@H](O)[C@@H](O)[C@H]2OCO[C@H]2[C@@H]1OCC1CC1	4 µg/mL (≈ 7.98 µM)	1 µg/mL (≈ 1.99 µM)	–	1 µg/mL (≈ 1.99 µM)	4 µg/mL (≈ 7.98 µM)	0.5 µg/mL (≈ 0.997 µM)	–	0.5 µg/mL (≈ 0.997 µM)	–
C/C(=C\c1cc(F)c(OCCCF)cc1F)C(=O)N[C@H]1[C@@H](O)[C@@H]2OCO[C@@H]2[C@H](O)[C@H]1OCC1CC1	> 64 µg/mL	> 64 µg/mL	–	> 64 µg/mL	> 64 µg/mL	64 µg/mL (≈ 128 µM)	–	32 µg/mL (≈ 63.8 µM)	–
C/C(=C\c1cc(F)c(OCCCF)cc1F)C(=O)N[C@@H]1[C@H](O)[C@@H](O)[C@H]2OCO[C@H]2[C@@H]1OCc1ccccc1	16 µg/mL (≈ 29.8 µM)	16 µg/mL (≈ 29.8 µM)	–	8 µg/mL (≈ 14.9 µM)	16 µg/mL (≈ 29.8 µM)	4 µg/mL (≈ 7.44 µM)	–	2 µg/mL (≈ 3.72 µM)	–
C/C(=C\c1cc(F)c(OCCCF)cc1F)C(=O)N[C@H]1[C@@H](O)[C@@H]2OCO[C@@H]2[C@H](O)[C@H]1OCc1ccccc1	64 µg/mL (≈ 119 µM)	64 µg/mL (≈ 119 µM)	14 ×10⁻⁶ cm/s	32 µg/mL (≈ 59.5 µM)	> 64 µg/mL	32 µg/mL (≈ 59.5 µM)	10 ×10⁻⁶ cm/s	32 µg/mL (≈ 59.5 µM)	–
C/C(=C\c1cc(F)c(OCCCF)cc1F)C(=O)N[C@@H]1[C@H](O)[C@@H](O)[C@H]2OCO[C@H]2[C@@H]1OCC1CCOC1 (stereo partly drawn)	2 µg/mL (≈ 3.76 µM)	1 µg/mL (≈ 1.88 µM)	–	1 µg/mL (≈ 1.88 µM)	4 µg/mL (≈ 7.53 µM)	0.5 µg/mL (≈ 0.941 µM)	–	0.25 µg/mL (≈ 0.47 µM)	–
COCCCO[C@@H]1[C@H](NC(=O)/C(C)=C/c2cc(F)c(OCCCF)cc2F)[C@H](O)[C@@H](O)[C@H]2OCO[C@H]21	16 µg/mL (≈ 30.8 µM)	2 µg/mL (≈ 3.85 µM)	–	4 µg/mL (≈ 7.7 µM)	16 µg/mL (≈ 30.8 µM)	4 µg/mL (≈ 7.7 µM)	–	2 µg/mL (≈ 3.85 µM)	90%
C/C(=C\c1cc(F)c(OCCCF)cc1F)C(=O)N[C@@H]1[C@H](O)[C@@H](O)[C@H]2OCO[C@H]2[C@@H]1OCC#N	1 µg/mL (≈ 2.06 µM)	0.5 µg/mL (≈ 1.03 µM)	–	1 µg/mL (≈ 2.06 µM)	2 µg/mL (≈ 4.11 µM)	0.5 µg/mL (≈ 1.03 µM)	–	0.25 µg/mL (≈ 0.514 µM)	–
C/C(=C\c1cc(F)c(OCCCF)cc1F)C(=O)N[C@@H]1[C@H](O)[C@@H](O)[C@H]2OCO[C@H]2[C@@H]1O	4 µg/mL (≈ 8.94 µM)	2 µg/mL (≈ 4.47 µM)	5.9 ×10⁻⁶ cm/s	0.4 µg/mL (≈ 0.894 µM)	4 µg/mL (≈ 8.94 µM)	0.5 µg/mL (≈ 1.12 µM)	0.9 ×10⁻⁶ cm/s	< 0.2 µg/mL	20%
CO[C@@H]1[C@@H](O)[C@@H](NC(=O)/C(C)=C/c2cc(F)c(OCCCF)cc2F)[C@@H](O)[C@@H]2OCO[C@H]12	100 µg/mL (≈ 217 µM)	100 µg/mL (≈ 217 µM)	–	25 µg/mL (≈ 54.2 µM)	> 100 µg/mL	25 µg/mL (≈ 54.2 µM)	–	50 µg/mL (≈ 108 µM)	–
C/C(=C\c1cc(F)c(OCCCF)cc1F)C(=O)N[C@H]1[C@@H](O)[C@@H]2OCO[C@@H]2C[C@H]1O	32 µg/mL (≈ 74.2 µM)	16 µg/mL (≈ 37.1 µM)	–	8 µg/mL (≈ 18.5 µM)	64 µg/mL (≈ 148 µM)	4 µg/mL (≈ 9.27 µM)	–	8 µg/mL (≈ 18.5 µM)	–
CO[C@@H]1[C@H](NC(=O)/C(C)=C/c2cc(F)c(OCCCF)cc2F)[C@H](O)[C@@H](O)[C@H]2OCO[C@H]21	3.13 µg/mL (≈ 6.78 µM)	1.56 µg/mL (≈ 3.38 µM)	–	1.56 µg/mL (≈ 3.38 µM)	6.25 µg/mL (≈ 13.5 µM)	0.78 µg/mL (≈ 1.69 µM)	–	1.56 µg/mL (≈ 3.38 µM)	–
CCO[C@@H]1[C@H](NC(=O)/C(C)=C/c2cc(F)c(OCCCF)cc2F)[C@H](O)[C@@H](O)[C@H]2OCO[C@H]21	8 µg/mL (≈ 16.8 µM)	4 µg/mL (≈ 8.41 µM)	–	4 µg/mL (≈ 8.41 µM)	8 µg/mL (≈ 16.8 µM)	1 µg/mL (≈ 2.1 µM)	–	1 µg/mL (≈ 2.1 µM)	–
C/C(=C\c1cc(F)c(OCCCF)cc1F)C(=O)N[C@H]1C[C@@H]2OCO[C@@H]2[C@H](O)[C@H]1O	8 µg/mL (≈ 18.5 µM)	4 µg/mL (≈ 9.27 µM)	–	8 µg/mL (≈ 18.5 µM)	16 µg/mL (≈ 37.1 µM)	–	–	8 µg/mL (≈ 18.5 µM)	–
C=CCOc1ccc(/C=C(\C)C(=O)N[C@@H]2[C@H](O)[C@@H](O)[C@H]3OCO[C@H]3[C@@H]2O)cc1O	50 µg/mL (≈ 123 µM)	1.56 µg/mL (≈ 3.83 µM)	–	1.56 µg/mL (≈ 3.83 µM)	50 µg/mL (≈ 123 µM)	1.56 µg/mL (≈ 3.83 µM)	–	0.8 µg/mL (≈ 1.96 µM)	–
CC(=O)[C@H]1O[C@@H](Oc2ccc(/C=C(\C)C(=O)N[C@@H]3[C@H](O)[C@@H](O)[C@H]4OCO[C@H]4[C@@H]3O)cc2O)[C@@H](O)[C@@H]1O [HYGROMYCIN A]	25 µg/mL (≈ 48.9 µM)	6.25 µg/mL (≈ 12.2 µM)	–	12.5 µg/mL (≈ 24.4 µM)	50 µg/mL (≈ 97.8 µM)	12.5 µg/mL (≈ 24.4 µM)	–	6.25 µg/mL (≈ 12.2 µM)	–
